Results: patent US20180256557A1, “PHARMACEUTICAL COMBINATION COMPRISING (A) THE ALPHA-ISOFORM SPECIFIC PI3K INHIBITOR ALPELISIB (BYL719) AND (B) AN AKT INHIBITOR, PREFERABLY MK-2206, AFURESERTIB OR UPROSERTIB, AND THE USE THEREOF IN THE TREATMENT/PREVENTION OF CANCER” (priority 2015, published 2018)

Assays:
Type in all cases: cell-based
[1] = tested on: 23 colorectal cancer cell lines; assay: Cell proliferation over the panel of cell lines; conditions: single agent; for IC50 values over the cell line panel: summary in words of FIG. 1 and Table 2
Experimental: (§1) COMPOUNDS A and B were dissolved in 100% DMSO (Sigma, Catalog number D2650) at concentrations of 20 mM and stored at −20° C. until use. Compounds were arrayed in drug master plates (Greiner, Catalog number 788876) and serially diluted 3-fold (7 steps) at 2000× concentration.
(§2) Colorectal cancer cell lines used for this study were obtained, cultured and processed from commercial vendors ATCC, CellBank Australia, DSMZ, ECACC, HSRRB, and RIKEN (Table 1). All cell line media were supplemented with 10% FBS (HyClone, Catalog number SH30071.03). Media for LIM2405 and LIM2551 was additionally supplemented with 0.6 μg/mL Insulin (SIGMA, Catalog number 19278), 1 μg/mL Hydrocortisone (SIGMA, Catalog number H0135), and 10 μM 1-Thioglycerol (SIGMA, Catalog number M6145).
(§3) Cell lines were cultured in 37° C. and 5% CO2 incubator and expanded in T-75 flasks. In all cases cells were thawed from frozen stocks, expanded through ≥1 passage using 1:3 dilutions, counted and assessed for viability using a ViCell counter (Beckman-Coulter) prior to plating. To split and expand cell lines, cells were dislodged from flasks using 0.25% Trypsin-EDTA (GIBCO, Catalog number 25200). All cell lines were determined to be free of mycoplasma contamination as determined by a PCR detection methodology performed at Idexx Radil (Columbia, Mo., USA) and correctly identified by detection of a panel of SNPs.
To test the effect of the combination of COMPOUND A and COMPOUND B on cell proliferation cells were plated in black 384-well microplates with clear bottom (Matrix/Thermo Scientific, Catalog number 4332) in 50 μL media per well at cell densities between 500 and 1250 cells/well (Table 1) and allowed to incubate at 37 degrees, 5% CO2 for 24 h. […] Caspase 3/7 induction was measured as a proxy for apoptosis induced by the treatments. Cells were treated for 72 h to 96 h depending on their doubling time (Table 1), and Caspase 3/7 activation was measured every 24 h by microscopy using an InCell Analyzer 2000 (GE Healthcare) equipped with a 4× objective and FITC excitation/emission filters. […]

[2] = tested on: SW48 colorectal cancer cell line; assay: Cell proliferation, cell count by microscopy; conditions: Homo sapiens; single agent; SW48 (MEK1); 96 h treatment
Experimental: as §1, §2, §3
(§4) To test the effect of the combination of COMPOUND A and COMPOUND B on cell proliferation cells were plated in black 384-well microplates with clear bottom (Matrix/Thermo Scientific, Catalog number 4332) in 50 μL media per well at cell densities between 500 and 1250 cells/well (Table 1) and allowed to incubate at 37 degrees, 5% CO2 for 24 h. After 24 h one 384-well plate per cell line was prepared for cell counting by microscopy (see below) without receiving treatment (=‘baseline’). The other cell plates were treated by transferring 25 nL of the 2000× compound from drug master plates using an ATS acoustic liquid dispenser (ECD Biosystems) and resulting in a final 1× concentration. COMPOUND A was used over a final concentration range of 13 nM-10 μM, and COMPOUND B was used over a final concentration range of 13 nM-10 μM (7 1:3 dilution steps). For the combination of COMPOUND A with COMPOUND B the single agents were combined at a fixed ratio of 1:1 at each dilution resulting in 7 combination treatments. […] After compound addition 50 nL of 2 mM CellEvent Caspase-3/7 Green Detection Reagent (ThermoFisher, Catalog number C10423) were added to one of the three replicates using the HP D300 Digital Dispenser (Tecan). Caspase 3/7 induction was measured as a proxy for apoptosis induced by the treatments. Cells were treated for 72 h to 96 h depending on their doubling time (Table 1), and Caspase 3/7 activation was measured every 24 h by microscopy using an InCell Analyzer 2000 (GE Healthcare) equipped with a 4× objective and FITC excitation/emission filters. At the end of the treatment cells were prepared for cell counting by microscopy. Cells were fixed and permeabilised for 45 minutes in 4% PFA (Electron Microscopy Sciences, Catalog number 15714), 0.12% TX-100 (Electron Microscopy Sciences, Catalog number 22140) in PBS (Boston Bioproducts, Catalog number BM-220). After washing cells three times with PBS their DNA was stained for 30 minutes with Hoechst 33342 (ThermoFisher, Catalog number H3570) at a final concentration of 4 μg/ml. Cells were washed three times with PBS and then plates were heat-sealed using a PlateLoc (Agilent Technologies) with aluminum seals (Agilent Technologies, Catalog number 06644-001) and stored at 4° C. until imaging. All cells per well/treatment were captured in a single image by fluorescence microscopy using an InCell Analyzer 2000 (GE Healthcare) equipped with a 4× objective and DAPI excitation/emission filters. […]

[3] = tested on: DLD-1 colorectal cancer cell line; assay: Cell proliferation, cell count by microscopy; conditions: Homo sapiens; single agent; DLD-1 (KRAS, PIK3CA); 72 h treatment
Experimental: as §1, §2, §3, §4

[4] = tested on: SW837 colorectal cancer cell line; assay: Cell proliferation, cell count by microscopy; conditions: Homo sapiens; single agent; SW837 (KRAS); 72 h treatment
Experimental: as §1, §2, §3, §4

[5] = tested on: GP2d colorectal cancer cell line; assay: Cell proliferation, cell count by microscopy; conditions: single agent; GP2d (KRAS, PIK3CA); 72 h treatment
Experimental: as §1, §2, §3, §4

[6] = tested on: COLO-320 colorectal cancer cell line; assay: Cell proliferation, cell count by microscopy; conditions: Homo sapiens; single agent; COLO-320 (no driver mutation listed); 72 h treatment
Experimental: as §1, §2, §3, §4

[7] = tested on: LoVo colorectal cancer cell line; assay: Cell proliferation, cell count by microscopy; conditions: Homo sapiens; single agent; LoVo (KRAS); 96 h treatment
Experimental: as §1, §2, §3, §4

[8] = tested on: LS411N colorectal cancer cell line; assay: Cell proliferation, cell count by microscopy; conditions: Homo sapiens, LS-411N; single agent; LS411N (BRAF); 72 h treatment
Experimental: as §1, §2, §3, §4

[9] = tested on: COLO-205 colorectal cancer cell line; assay: Cell proliferation, cell count by microscopy; conditions: Homo sapiens; single agent; COLO-205 (BRAF); 72 h treatment
Experimental: as §1, §2, §3, §4

[10] = tested on: SNU-C2A colorectal cancer cell line; assay: Cell proliferation, cell count by microscopy; conditions: single agent; SNU-C2A (KRAS); 96 h treatment
Experimental: as §1, §2, §3, §4

[11] = tested on: SW620 colorectal cancer cell line; assay: Cell proliferation, cell count by microscopy; conditions: Homo sapiens, SW-620; single agent; SW620 (KRAS); 72 h treatment
Experimental: as §1, §2, §3, §4

[12] = tested on: RKO colorectal cancer cell line; assay: Cell proliferation, cell count by microscopy; conditions: single agent; RKO (BRAF, PIK3CA); 72 h treatment
Experimental: as §1, §2, §3, §4

[13] = tested on: SW480 colorectal cancer cell line; assay: Cell proliferation, cell count by microscopy; conditions: Homo sapiens; single agent; SW480 (KRAS); 72 h treatment
Experimental: as §1, §2, §3, §4

[14] = tested on: NCI-H508 colorectal cancer cell line; assay: Cell proliferation, cell count by microscopy; conditions: Homo sapiens; single agent; NCI-H508 (PIK3CA); 72 h treatment
Experimental: as §1, §2, §3, §4

[15] = tested on: HT55 colorectal cancer cell line; assay: Cell proliferation, cell count by microscopy; conditions: Homo sapiens; single agent; HT55 (no driver mutation listed); 96 h treatment
Experimental: as §1, §2, §3, §4

[16] = tested on: LS-180 colorectal cancer cell line; assay: Cell proliferation, cell count by microscopy; conditions: Homo sapiens, LS180; single agent; LS-180 (KRAS, PIK3CA); 72 h treatment
Experimental: as §1, §2, §3, §4

[17] = tested on: CL-11 colorectal cancer cell line; assay: Cell proliferation, cell count by microscopy; conditions: single agent; CL-11 (KRAS); 96 h treatment
Experimental: as §1, §2, §3, §4

[18] = tested on: CW-2 colorectal cancer cell line; assay: Cell proliferation, cell count by microscopy; conditions: single agent; CW-2 (no driver mutation listed); 96 h treatment
Experimental: as §1, §2, §3, §4

[19] = tested on: LIM2551 colorectal cancer cell line; assay: Cell proliferation, cell count by microscopy; conditions: single agent; LIM2551 (BRAF, PIK3CA); 72 h treatment
Experimental: as §1, §2, §3, §4

[20] = tested on: HT-29 colorectal cancer cell line; assay: Cell proliferation, cell count by microscopy; conditions: Homo sapiens; single agent; HT-29 (BRAF, PIK3CA); 72 h treatment
Experimental: as §1, §2, §3, §4

[21] = tested on: LIM2405 colorectal cancer cell line; assay: Cell proliferation, cell count by microscopy; conditions: single agent; LIM2405 (BRAF); 72 h treatment
Experimental: as §1, §2, §3, §4

[22] = tested on: COLO-678 colorectal cancer cell line; assay: Cell proliferation, cell count by microscopy; conditions: Homo sapiens; single agent; COLO-678 (KRAS); 96 h treatment
Experimental: as §1, §2, §3, §4

[23] = tested on: HCT-116 colorectal cancer cell line; assay: Cell proliferation, cell count by microscopy; conditions: Homo sapiens; single agent; HCT-116 (KRAS, PIK3CA); 72 h treatment
Experimental: as §1, §2, §3, §4

[24] = tested on: OUMS-23 colorectal cancer cell line; assay: Cell proliferation, cell count by microscopy; conditions: single agent; OUMS-23 (BRAF); 72 h treatment
Experimental: as §1, §2, §3, §4

| IC50 values over the cell line panel [1] | IC50 [2] [µM] | IC50 [3] [µM] | IC50 [4] [µM] | IC50 [5] [nM] | IC50 [6] [µM] | IC50 [7] [µM] | IC50 [8] [nM] | IC50 [9] [µM] | IC50 [10] [µM] | IC50 [11] [µM] | IC50 [12] [µM] | IC50 [13] [µM] | IC50 [14] [nM] | IC50 [15] [nM] | IC50 [16] [µM] | IC50 [17] [µM] | IC50 [18] [µM] | IC50 [19] [nM] | IC50 [20] [nM] | Structure (SMILES) | further results |
| --- | --- | --- | --- | --- | --- | --- | --- | --- | --- | --- | --- | --- | --- | --- | --- | --- | --- | --- | --- | --- | --- |
| micromolar | > 10 | > 10 | > 10 | 600 | 5.1 | 0.1 | 3000 | 5.4 | > 10 | > 10 | 3.9 | > 10 | 1500 | 1000 | > 10 | > 10 | 6.4 | 1400 | 3800 | NC1(c2ccc(-c3nc4ccn5c(=O)[nH]nc5c4cc3-c3ccccc3)cc2)CCC1 [COMPOUND B, 8-[4-(1-Aminocyclobutyl)phenyl]-9-phenyl-1,2,4-triazolo[3,4-f][1,6]naphthyridin-3(2H)-one, reference compound] | IC50 [21]: > 10 µM; IC50 [22]: > 10 µM; IC50 [23]: > 10 µM; IC50 [24]: > 10 µM |
| micromolar | 3.2 | > 10 | 9.3 | 300 | 7.3 | 7.5 | > 10000 | > 10 | > 10 | > 10 | 2.6 | > 10 | 1300 | 1100 | 7.1 | 3.2 | > 10 | 1400 | 1900 | Cc1nc(NC(=O)N2CCC[C@H]2C(N)=O)sc1-c1ccnc(C(C)(C)C(F)(F)F)c1 [COMPOUND A, (S)-Pyrrolidine-1,2-dicarboxylic acid 2-amide 1-({4-methyl-5-[2-(2,2,2-trifluoro-1,1-dimethyl-ethyl)-pyridin-4-yl]-thiazol-2-yl}-amide)] | growth inhibition of PIK3CA mutant cell lines compared to PIK3CA wild type cell lines ([1]; one-tailed t-test on normalized cell counts (FIG. 3)): significantly stronger; IC50 [21]: > 10 µM; IC50 [22]: > 10 µM; IC50 [23]: 6.9 µM; IC50 [24]: > 10 µM |
